From US20250282785A1, “PYRROLIDINONE DERIVATIVES AS INHIBITORS OF NF KAPPA B INDUCING KINASE” (priority 2022, published 2025)

Experiments:
[1] = molecular target: Recombinant Human NF-Kappab-Inducing Kinase (NIK/MAP3K14) (Homo sapiens, UniProt Q99558); experiment: Inhibition of auto-phosphorylation of recombinant human NIK/MAP3K14 (AlphaScreen); format: biochemical; conditions: NIK/MAP3K14 auto-phosphorylation, 5 microM ATP, 1 nM enzyme, 2 h at 25° C.; average of values; read-out: Assay 1 IC50
Summary of the method: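 GST-tagged NIK (1 nM) auto-phosphorylation with 5 µM ATP in Tris pH 7.5/MgCl2 buffer, 0.7% DMSO, 2 h at 25 °C. Phospho-IKK Ser176/180 antibody detected by AlphaScreen beads. Signal normalized to full-enzyme and no-ATP controls; IC50 from sigmoidal fit of % inhibition vs log concentration.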

[2] = tested on: p-IKKα levels in L363 (NIK translocated multiple myeloma) cells; experiment: Effect of compounds on p-IKKα levels in L363 cells (AlphaLISA SureFire Ultra); format: cell-based; conditions: Homo sapiens, L-363; L363 cells, BAFF stimulated, MG132, 6 h; average of values; read-out: Assay 2 IC50
Summary of the method: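 L363 myeloma cells were BAFF-stimulated (250 ng/ml) overnight in DMEM/0.5% BSA, then exposed 6 h at 37° C to compound (11-point 1:3 series, 0.3% DMSO) with BAFF plus 10 uM MG132. p-IKKα (Ser 176/180) was read by AlphaLISA SureFire Ultra in lysates. IC50 came from sigmoidal fits normalized to stimulated and unstimulated controls.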

Chain of Recombinant Human NF-Kappab-Inducing Kinase (NIK/MAP3K14) (Q99558 whole entry): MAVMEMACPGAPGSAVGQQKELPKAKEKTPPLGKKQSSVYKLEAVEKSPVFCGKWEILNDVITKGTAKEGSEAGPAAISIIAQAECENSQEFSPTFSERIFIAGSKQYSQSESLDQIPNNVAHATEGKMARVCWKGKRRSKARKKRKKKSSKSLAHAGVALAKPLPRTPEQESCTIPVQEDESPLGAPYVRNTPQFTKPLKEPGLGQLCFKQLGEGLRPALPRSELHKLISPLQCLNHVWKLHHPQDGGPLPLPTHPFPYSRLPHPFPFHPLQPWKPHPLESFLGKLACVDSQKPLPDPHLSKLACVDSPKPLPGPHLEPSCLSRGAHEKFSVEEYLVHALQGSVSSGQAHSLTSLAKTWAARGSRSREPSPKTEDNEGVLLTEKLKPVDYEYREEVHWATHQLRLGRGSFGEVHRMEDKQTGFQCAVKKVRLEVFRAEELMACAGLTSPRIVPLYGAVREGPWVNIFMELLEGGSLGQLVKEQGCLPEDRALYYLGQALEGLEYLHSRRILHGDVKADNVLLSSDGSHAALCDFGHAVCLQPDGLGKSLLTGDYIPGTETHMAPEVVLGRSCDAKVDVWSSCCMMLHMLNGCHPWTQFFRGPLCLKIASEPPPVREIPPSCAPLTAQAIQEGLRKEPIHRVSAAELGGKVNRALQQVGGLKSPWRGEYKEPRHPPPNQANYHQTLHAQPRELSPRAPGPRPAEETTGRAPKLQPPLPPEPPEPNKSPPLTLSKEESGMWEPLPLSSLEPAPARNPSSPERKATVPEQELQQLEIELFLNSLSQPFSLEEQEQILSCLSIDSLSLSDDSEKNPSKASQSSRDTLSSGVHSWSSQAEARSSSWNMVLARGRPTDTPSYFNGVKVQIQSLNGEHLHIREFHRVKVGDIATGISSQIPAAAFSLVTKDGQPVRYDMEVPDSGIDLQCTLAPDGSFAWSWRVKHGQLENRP

[2H]c1nc(N)c2nc(-c3cccc(-n4cc([C@]5(O)CCN(C)C5=O)nn4)c3)ccc2n1 [Example 35, (R)-3-(1-(3-(4-Aminopyrido[3,2-d]pyrimidin-6-yl-2-d)phenyl)-1H-1,2,3-triazol-4-yl)-3-hydroxy-1-methylpyrrolidin-2-one]
IC50 [1]: < 100 nM
IC50 [2]: > 501 nM

Cc1ccc(-c2cc([C@]3(O)CCN(C)C3=O)on2)cc1-c1cccc(C(N)=O)n1 [Example 151, (R)-6-(5-(5-(3-Hydroxy-1-methyl-2-oxopyrrolidin-3-yl)isoxazol-3-yl)-2-methylphenyl)picolinamide]
IC50 [1]: > 501 nM
IC50 [2]: > 501 nM

[2H]c1nc(N)c2nc(-c3cccc(-n4cc([C@@]5(O)CCN(C)C5=O)nn4)c3)ccc2n1 [Example 36, (S)-3-(1-(3-(4-Aminopyrido[3,2-d]pyrimidin-6-yl-2-d)phenyl)-1H-1,2,3-triazol-4-yl)-3-hydroxy-1-methylpyrrolidin-2-one]
IC50 [1]: 100 to 500 nM
IC50 [2]: > 501 nM

CN1CC[C@@](O)(c2cc(-c3cccc(-c4nc5c(c(C(N)=O)n4)[C@H]4CC[C@@H](C5)O4)c3)no2)C1=O [Example 171, (5R,8S)-2-(3-(5-((R)-3-Hydroxy-1-methyl-2-oxopyrrolidin-3-yl)isoxazol-3-yl)phenyl)-6,7,8,9-tetrahydro-5H-5,8-epoxycyclohepta[d]pyrimidine-4-carboxamide]
IC50 [1]: < 100 nM
IC50 [2]: > 501 nM

CN1CC[C@@](O)(c2cc(-c3cccc(-c4cccc5c(=O)[nH]ccc45)n3)no2)C1=O [Example 196, (R)-5-(6-(5-(3-Hydroxy-1-methyl-2-oxopyrrolidin-3-yl)isoxazol-3-yl)pyridin-2-yl)isoquinolin-1(2H)-one]
IC50 [1]: < 100 nM
IC50 [2]: > 501 nM

[2H]c1nc(N)c2nc(-c3cccc(-c4ncc([C@@]5(O)CCN(C)C5=O)o4)c3)ccc2n1 (single isomer, unassigned) [Example 40]
IC50 [1]: > 501 nM
IC50 [2]: > 501 nM

CN1CC[C@@](O)(c2cc(-c3cccc(-c4ccc5cncn5c4)c3)no2)C1=O [Example 51, (R)-3-Hydroxy-3-(3-(3-(imidazo[1,5-a]pyridin-6-yl)phenyl)isoxazol-5-yl)-1-methylpyrrolidin-2-one]
IC50 [1]: 100 to 500 nM
IC50 [2]: > 501 nM

CCn1cnc2c(C(N)=O)nc(-c3cccc(-c4cc([C@]5(O)CCN(C)C5=O)on4)c3)cc21 [Example 90, (R)-1-Ethyl-6-(3-(5-(3-hydroxy-1-methyl-2-oxopyrrolidin-3-yl)isoxazol-3-yl)phenyl)-1H-imidazo[4,5-c]pyridine-4-carboxamide]
IC50 [1]: 100 to 500 nM
IC50 [2]: > 501 nM

COc1cc(-c2cccc(-c3cc([C@]4(O)CCN(C)C4=O)on3)c2)nc2c1cnn2C [Example 48, (R)-3-Hydroxy-3-(3-(3-(4-methoxy-1-methyl-1H-pyrazolo[3,4-b]pyridin-6-yl)phenyl)isoxazol-5-yl)-1-methylpyrrolidin-2-one]
IC50 [1]: < 100 nM
IC50 [2]: > 501 nM

CN1CC[C@@](O)(c2cc(-c3cccc(-c4cc5[nH]cnc5c(C(N)=O)n4)c3)no2)C1=O [Example 97, (R)-6-(3-(5-(3-Hydroxy-1-methyl-2-oxopyrrolidin-3-yl)isoxazol-3-yl)phenyl)-1H-imidazo[4,5-c]pyridine-4-carboxamide]
IC50 [1]: < 100 nM
IC50 [2]: 100 to 500 nM

Cc1cc(-c2cccc(-c3cc([C@@]4(O)CCN(C)C4=O)on3)c2)nc2c(N)ncnc12 [Example 27, (S)-3-(3-(3-(4-Amino-8-methylpyrido[3,2-d]pyrimidin-6-yl)phenyl)isoxazol-5-yl)-3-hydroxy-1-methylpyrrolidin-2-one]
IC50 [1]: > 501 nM
IC50 [2]: > 501 nM

Cc1cc(-c2cc([C@]3(O)CCN(C)C3=O)on2)cc(-c2cccc(C(N)=O)n2)c1 [Example 152, (R)-6-(3-(5-(3-Hydroxy-1-methyl-2-oxopyrrolidin-3-yl)isoxazol-3-yl)-5-methylphenyl)picolinamide]
IC50 [1]: < 100 nM
IC50 [2]: > 501 nM

CN1CC[C@@](O)(c2cc(-c3cccc(-c4nc(C(N)=O)c(CN5CCCC5)s4)c3)no2)C1=O [Example 231, (R)-2-(3-(5-(3-Hydroxy-1-methyl-2-oxopyrrolidin-3-yl)isoxazol-3-yl)phenyl)-5-(pyrrolidin-1-ylmethyl)thiazole-4-carboxamide]
IC50 [1]: < 100 nM
IC50 [2]: > 501 nM

COc1cc(-c2cc(-c3cc([C@]4(O)C[C@@H](C(F)(F)F)N(C)C4=O)on3)ccc2F)nc2c(N)ncnc12 [Example 116, (3R,5S)-3-(3-(3-(4-amino-8-methoxypyrido[3,2-d]pyrimidin-6-yl)-4-fluorophenyl)isoxazol-5-yl)-3-hydroxy-1-methyl-5-(trifluoromethyl)pyrrolidin-2-one]
IC50 [1]: < 100 nM
IC50 [2]: > 501 nM

CN1CC[C@@](O)(c2cc(-c3cccc(-c4ccc(N)c(C(N)=O)n4)c3)no2)C1=O [Example 7, (R)-3-Amino-6-(3-(5-(3-hydroxy-1-methyl-2-oxopyrrolidin-3-yl)isoxazol-3-yl)phenyl)picolinamide]
IC50 [1]: < 100 nM
IC50 [2]: < 100 nM

[2H]c1nc(N)c2nc(-c3cccc(-c4cc([C@]5(O)CCN(C)C5=O)nn4C)c3)ccc2n1 (single isomer, unassigned) [Example 43]
IC50 [1]: 100 to 500 nM
IC50 [2]: > 501 nM

Cc1nc(N)c2nc(-c3cccc(-c4cc([C@]5(O)CCN(C)C5=O)on4)c3)ccc2n1 [Example 1, (R)-3-(3-(3-(4-Amino-2-methylpyrido[3,2-d]pyrimidin-6-yl)phenyl)isoxazol-5-yl)-3-hydroxy-1-methylpyrrolidin-2-one]
IC50 [1]: < 100 nM
IC50 [2]: 100 to 500 nM

CN1CC[C@](O)(c2cc(-c3cccc(-c4nc5c(c(C(N)=O)n4)[C@H]4CC[C@@H](C5)O4)c3)no2)C1=O [Example 172, (5R,8S)-2-(3-(5-((S)-3-Hydroxy-1-methyl-2-oxopyrrolidin-3-yl)isoxazol-3-yl)phenyl)-6,7,8,9-tetrahydro-5H-5,8-epoxycyclohepta[d]pyrimidine-4-carboxamide]
IC50 [1]: > 501 nM
IC50 [2]: > 501 nM

CN1CC[C@@](O)(c2cc(-c3cccc(-c4nc(C(N)=O)cc(C(F)(F)F)n4)c3)no2)C1=O [Example 98, (R)-2-(3-(5-(3-Hydroxy-1-methyl-2-oxopyrrolidin-3-yl)isoxazol-3-yl)phenyl)-6-(trifluoromethyl)pyrimidine-4-carboxamide]
IC50 [1]: < 100 nM
IC50 [2]: > 501 nM

CN1CC[C@@](O)(c2cc(-c3cccc(-c4cc(C(F)(F)F)c(N)c(C(N)=O)n4)c3)no2)C1=O [Example 50, (R)-3-Amino-6-(3-(5-(3-hydroxy-1-methyl-2-oxopyrrolidin-3-yl)isoxazol-3-yl)phenyl)-4-(trifluoromethyl)picolinamide]
IC50 [1]: < 100 nM
IC50 [2]: < 100 nM

CN1CC[C@@](O)(c2cc(-c3cccc(-c4nc(C(N)=O)n5ccncc45)c3)no2)C1=O [Example 109, (R)-1-(3-(5-(3-Hydroxy-1-methyl-2-oxopyrrolidin-3-yl)isoxazol-3-yl)phenyl)imidazo[1,5-a]pyrazine-3-carboxamide]
IC50 [1]: < 100 nM
IC50 [2]: 100 to 500 nM

CN1CC[C@@](O)(c2cc(-c3cccc(-c4cc5[nH]ncc5cn4)c3)no2)C1=O [Example 83, (R)-3-(3-(3-(1H-pyrazolo[4,3-c]pyridin-6-yl)phenyl)isoxazol-5-yl)-3-hydroxy-1-methylpyrrolidin-2-one]
IC50 [1]: > 501 nM
IC50 [2]: > 501 nM

CCc1c[nH]c2ncnc(-c3cccc(-c4cc([C@]5(O)CCN(C)C5=O)on4)c3)c12 [Example 73, (R)-3-(3-(3-(5-Ethyl-7H-pyrrolo[2,3-d]pyrimidin-4-yl)phenyl)isoxazol-5-yl)-3-hydroxy-1-methylpyrrolidin-2-one]
IC50 [1]: > 501 nM
IC50 [2]: > 501 nM

CN1CC[C@@](O)(c2cc(-c3cccc(-c4ccn5nccc5c4)c3)no2)C1=O [Example 58, (R)-3-hydroxy-1-methyl-3-(3-(3-(pyrazolo[1,5-a]pyridin-5-yl)phenyl)isoxazol-5-yl)pyrrolidin-2-one]
IC50 [1]: 100 to 500 nM
IC50 [2]: > 501 nM

CN1CC[C@@](O)(c2cc(-c3cccc(-c4ccc5ncoc5c4)c3)no2)C1=O [Example 69, (R)-3-(3-(3-(Benzo[d]oxazol-6-yl)phenyl)isoxazol-5-yl)-3-hydroxy-1-methylpyrrolidin-2-one]
IC50 [1]: > 501 nM
IC50 [2]: > 501 nM

CN1CC[C@@](O)(c2cc(-c3cccc(-c4cc(C5CC5)c(N)c(C(N)=O)n4)c3F)no2)C1=O [Example 242, (R)-3-Amino-4-cyclopropyl-6-(2-fluoro-3-(5-(3-hydroxy-1-methyl-2-oxopyrrolidin-3-yl)isoxazol-3-yl)phenyl)picolinamide]
IC50 [1]: < 100 nM
IC50 [2]: < 100 nM

CN1CC[C@@](O)(c2cc(-c3cccc(-c4ccc5[nH]ncc5n4)c3)no2)C1=O [Example 228, (R)-3-(3-(3-(1H-Pyrazolo[4,3-b]pyridin-5-yl)phenyl)isoxazol-5-yl)-3-hydroxy-1-methylpyrrolidin-2-one]
IC50 [1]: 100 to 500 nM
IC50 [2]: > 501 nM

CN1CC[C@@](O)(c2cc(-c3cccc(-c4cccc(C(N)=O)n4)c3)n(C)n2)C1=O (single isomer, unassigned) [Example 30]
IC50 [1]: > 501 nM
IC50 [2]: > 501 nM

CN1CCC(O)(c2cn(-c3cccc(-c4nc(C(N)=O)c5ccccc5n4)c3)cn2)C1=O (racemic) [Example 19, (R,S)-2-(3-(4-(3-Hydroxy-1-methyl-2-oxopyrrolidin-3-yl)-1H-imidazol-1-yl)phenyl)quinazoline-4-carboxamide]
IC50 [1]: < 100 nM
IC50 [2]: > 501 nM
